The values below come from patent publication US12110305B2, “Prodrugs of phosphonamide nucleotide analogues and their pharmaceutical use” (priority 2020, dated 2024).

Bounds are passed on as bounds.

In the experiment the test system is HIV-1 (IIIB). Nature of the experiment: Antiviral (HIV) assay in MT-4 cells. Format: cell-based. The settings on record: Human immunodeficiency virus 1, MT4, 120 h; HIV-1 IIIB in MT-4 cells, 5 days incubation, Cell Titer Glo; average of at least two independent experiments. How it is done: Example 104: Antiviral (HIV) Assay in MT-4 Cells
Compounds were tested in a high-throughput 384-well assay format for their ability to inhibit the replication of HIV-1 (IIIB) in MT-4 cells. Compounds were serially diluted (1:3) in DMSO on 384-well polypropylene plates and further diluted 200-fold into complete RPMI media (10% FBS, 1% P/S) using the Biotek Micro Flow and Labcyte ECHO acoustic dispenser. Each plate contained up to 8 test compounds, with negative (no drug) and positive (5 μM AZT) controls. MT-4 cells were pre-treated with 10 μL of either RPMI (mock-infected) or a fresh 1:250 dilution of HIV-1 IIIB concentrated virus stock. Infected and uninfected MT-4 cells were further diluted in complete RPMI media and added to each plate using a Micro Flow dispenser. After 5 days incubation in a humidified and temperature-controlled incubator (37° C.), Cell Titer Glo (Promega) was added to the assay plates and chemiluminescence read using an Envision plate-reader. EC50 values were defined as the compound concentration that causes a 50% decrease in luminescence signal and were calculated using a sigmoidal dose-response model to generate curve fits and are shown in Table 1.
As a reminder, the EC50 is the concentration that produces a half-maximal response. Low readings indicate higher potency in that assay, high ones lower potency in that assay. In the case of `CCCCCCOC(=O)C(C)(C)NP(=O)(CO[C@H](C)Cn1cnc2c(N)ncnc21)NC(C)(C)C(=O)OCCCCCC` [Example 1, Dihexyl 2,2′-(((((1-(6-amino-9H-purin-9-yl)propan-2-yl)oxy)methyl)phosphoryl)bis(azanediyl))(R)-bis(2-methylpropanoate)], the EC50 is 5 nM.
To `CCC(CC)COC(=O)C(C)(C)NP(=O)(CO[C@H](C)Cn1cnc2c(N)ncnc21)NC(C)(C)C(=O)OCC(CC)CC` [Example 2, Bis(2-ethylbutyl) 2,2′-(((((1-(6-amino-9H-purin-9-yl)propan-2-yl)oxy)methyl)phosphoryl)bis(azanediyl))(R)-bis(2-methylpropanoate)] belongs 4 nM; to `C[C@H](Cn1cnc2c(N)ncnc21)OCP(=O)(NC(C)(C)C(=O)OCc1ccccc1)NC(C)(C)C(=O)OCc1ccccc1` [Example 3, Dibenzyl 2,2′-(((((1-(6-amino-9H-purin-9-yl)propan-2-yl)oxy)methyl)phosphoryl)bis(azanediyl))(R)-bis(2-methylpropanoate)], 10 nM; to `CCCCCOC(=O)C(C)(C)NP(=O)(CO[C@H](C)Cn1cnc2c(N)ncnc21)NC(C)(C)C(=O)OCCCCC` [Example 4, Dipentyl 2,2′-(((((1-(6-amino-9H-purin-9-yl)propan-2-yl)oxy)methyl)phosphoryl)bis(azanediyl))(R)-bis(2-methylpropanoate)], 6 nM.
`C[C@H](Cn1cnc2c(N)ncnc21)OCP(=O)(NC(C)(C)C(=O)OCC(C)(C)C)NC(C)(C)C(=O)OCC(C)(C)C` [Example 5]: it took 5 nM to reach a half-maximal effect (EC50).
As for `CC(C)CCOC(=O)C(C)(C)NP(=O)(CO[C@H](C)Cn1cnc2c(N)ncnc21)NC(C)(C)C(=O)OCCC(C)C` [Example 6, Diisopentyl 2,2′-(((((1-(6-amino-9H-purin-9-yl)propan-2-yl)oxy)methyl)phosphoryl)bis(azanediyl))(R)-bis(2-methylpropanoate)], the midpoint of the response, the EC50, lay at 2 nM. Against the preceding compound, the EC50 is about 2.5-fold lower.
In turn, `CCC(CC)CCOC(=O)C(C)(C)NP(=O)(CO[C@H](C)Cn1cnc2c(N)ncnc21)NC(C)(C)C(=O)OCCC(CC)CC` [Example 7, Bis(3-ethylpentyl) 2,2′-(((((1-(6-amino-9H-purin-9-yl)propan-2-yl)oxy)methyl)phosphoryl)bis(azanediyl))(R)-bis(2-methylpropanoate)] displayed a concentration for a half-maximal effect (EC50) of 9 nM.
To `C[C@H](Cn1cnc2c(N)ncnc21)OCP(=O)(NC(C)(C)C(=O)OCCC(C)(C)C)NC(C)(C)C(=O)OCCC(C)(C)C` [Example 8, Bis(3,3-dimethylbutyl) 2,2′-(((((1-(6-amino-9H-purin-9-yl)propan-2-yl)oxy)methyl)phosphoryl)bis(azanediyl))(R)-bis(2-methylpropanoate)] belongs 5 nM; to `C[C@H](Cn1cnc2c(N)ncnc21)OCP(=O)(NC(C)(C)C(=O)OC(C)(C)C)NC(C)(C)C(=O)OC(C)(C)C` [Example 9, Di-tert-butyl 2,2′-(((((1-(6-amino-9H-purin-9-yl)propan-2-yl)oxy)methyl)phosphoryl)bis(azanediyl))(R)-bis(2-methylpropanoate)], 169 nM; to `CCCCCCOC(=O)[C@](C)(CC)NP(=O)(CO[C@H](C)Cn1cnc2c(N)ncnc21)N[C@@](C)(CC)C(=O)OCCCCCC` [Example 10, Dihexyl 2,2′-((((((R)-1-(6-amino-9H-purin-9-yl)propan-2-yl)oxy)methyl)phosphoryl)bis(azanediyl))(2S,2'S)-bis(2-methylbutanoate)], 37 nM.
Take `CCCCCCOC(=O)[C@](C)(Cc1ccccc1)NP(=O)(CO[C@H](C)Cn1cnc2c(N)ncnc21)N[C@@](C)(Cc1ccccc1)C(=O)OCCCCCC` [Example 11, Dihexyl 2,2′-((((((R)-1-(6-amino-9H-purin-9-yl)propan-2-yl)oxy)methyl)phosphoryl)bis(azanediyl))(2S,2'S)-bis(2-methyl-3-phenylpropanoate)]: the EC50 came to 17 nM.
For `C[C@H](Cn1cnc2c(N)ncnc21)OCP(=O)(NC(C)(C)C(=O)OCCC1CCCCC1)NC(C)(C)C(=O)OCCC1CCCCC1` [Example 14, Bis(2-cyclohexylethyl) 2,2′-(((((1-(6-amino-9H-purin-9-yl)propan-2-yl)oxy)methyl)phosphoryl)bis(azanediyl))(R)-bis(2-methylpropanoate)], the EC50 was 7 nM.
Take `C[C@H](Cn1cnc2c(N)ncnc21)OCP(=O)(N[C@@](C)(Cc1ccccc1)C(=O)OCC1CCCCC1)N[C@@](C)(Cc1ccccc1)C(=O)OCC1CCCCC1` [Example 15, Bis(cyclohexylmethyl) 2,2′-((((((R)-1-(6-amino-9H-purin-9-yl)propan-2-yl)oxy)methyl)phosphoryl)bis(azanediyl))(2S,2'S)-bis(2-methyl-3-phenylpropanoate)]: a half-maximal response (EC50) required 17 nM.
In the case of `CCCCCCOC(=O)C(C)(C)NP(=O)(CO[C@H](C)Cn1cnc2c(N)ncnc21)N[C@]1(C(=O)OCCCCCC)C[C@H]1CC` (stereo partly drawn) [Example 16, Hexyl (1R,2R)-1-((((((R)-1-(6-amino-9H-purin-9-yl)propan-2-yl)oxy)methyl)((1-(hexyloxy)-2-methyl-1-oxopropan-2-yl)amino)phosphoryl)amino)-2-ethylcyclopropane-1-carboxylate] it was 35 nM.
The compound `CCCCCCOC(=O)[C@@]1(NP(=O)(CO[C@H](C)Cn2cnc3c(N)ncnc32)N[C@]2(C(=O)OCCCCCC)C[C@H]2CC)C[C@H]1CC` [Example 17, Dihexyl 1,1′-((((((R)-1-(6-amino-9H-purin-9-yl)propan-2-yl)oxy)methyl)phosphoryl)bis(azanediyl))(1R,1′R,2R,2′R)-bis(2-ethylcyclopropane-1-carboxylate)] came in with an EC50 above 500 nM.
In the case of `CCCCCCOC(=O)C(C)(C)NP(=O)(CO[C@H](C)Cn1cnc2c(N)ncnc21)NC1(C(=O)OCCCCCC)CCC1` (stereo partly drawn) [Example 18, Hexyl 1-((((((R)-1-(6-amino-9H-purin-9-yl)propan-2-yl)oxy)methyl)((1-(hexyloxy)-2-methyl-1-oxopropan-2-yl)amino)phosphoryl)amino)cyclobutane-1-carboxylate] it was 13 nM.
To `CCCCCCOC(=O)C1(NP(=O)(CO[C@H](C)Cn2cnc3c(N)ncnc32)NC2(C(=O)OCCCCCC)CCC2)CCC1` [Example 19, Dihexyl 1,1′-(((((1-(6-amino-9H-purin-9-yl)propan-2-yl)oxy)methyl)phosphoryl)bis(azanediyl))(R)-bis(cyclobutane-1-carboxylate)] belongs 30 nM; to `CCCCCCOC(=O)C(C)(C)NP(=O)(CO[C@H](C)Cn1cnc2c(N)ncnc21)NC1(C(=O)OCCCCCC)CC1` (stereo partly drawn) [Example 20, Hexyl 1-((((((R)-1-(6-amino-9H-purin-9-yl)propan-2-yl)oxy)methyl)((1-(hexyloxy)-2-methyl-1-oxopropan-2-yl)amino)phosphoryl)amino)cyclopropane-1-carboxylate], 12 nM; to `C[C@H](Cn1cnc2c(N)ncnc21)OCP(=O)(NC(C)(C)C(=O)O[C@H]1CC[C@H](C(F)(F)F)CC1)NC(C)(C)C(=O)O[C@H]1CC[C@H](C(F)(F)F)CC1` [Example 21, Bis(trans-4-(trifluoromethyl)cyclohexyl) 2,2′-((((((R)-1-(6-amino-9H-purin-9-yl)propan-2-yl)oxy)methyl)phosphoryl)bis(azanediyl))bis(2-methylpropanoate)], 7 nM.
As to `CCCCCCOC(=O)C(C)(C)NP(=O)(CO[C@H](C)Cn1cnc2c(N)ncnc21)NC(C)(C)C(=O)O[C@H]1CC[C@H](C(F)(F)F)CC1` (stereo partly drawn) [Example 22, Hexyl 2-((((((R)-1-(6-amino-9H-purin-9-yl)propan-2-yl)oxy)methyl)((2-methyl-1-oxo-1-((trans-4-(trifluoromethyl)cyclohexyl)oxy)propan-2-yl)amino)phosphoryl)amino)-2-methylpropanoate], a half-maximal effect (EC50) was put at 9 nM.
To `C[C@H](Cn1cnc2c(N)ncnc21)OCP(=O)(NC(C)(C)C(=O)OCCCCC(F)(F)F)NC(C)(C)C(=O)OCCCCC(F)(F)F` [Example 25, Bis(5,5,5-trifluoropentyl) 2,2′-(((((1-(6-amino-9H-purin-9-yl)propan-2-yl)oxy)methyl)phosphoryl)bis(azanediyl))(R)-bis(2-methylpropanoate)] belongs 8 nM; to `C[C@H](Cn1cnc2c(N)ncnc21)OCP(=O)(NC(C)(C)C(=O)O[C@H]1C[C@H](C(F)(F)F)C1)NC(C)(C)C(=O)O[C@H]1C[C@H](C(F)(F)F)C1` [Example 26, Bis(trans-3-(trifluoromethyl)cyclobutyl) 2,2′-((((((R)-1-(6-amino-9H-purin-9-yl)propan-2-yl)oxy)methyl)phosphoryl)bis(azanediyl))bis(2-methylpropanoate)], 6 nM.
To `CCC[C@H]1CC[C@H](OC(=O)C(C)(C)NP(=O)(CO[C@H](C)Cn2cnc3c(N)ncnc32)NC(C)(C)C(=O)O[C@H]2CC[C@H](CCC)CC2)CC1` [Example 27] belongs 26 nM; to `CCCCCCOC(=O)C(C)(C)NP(=O)(CO[C@H](C)Cn1cnc2c(NC(C)=O)ncnc21)NC(C)(C)C(=O)OCCCCCC` [Example 28, Dihexyl 2,2′-(((((1-(6-acetamido-9H-purin-9-yl)propan-2-yl)oxy)methyl)phosphoryl)bis(azanediyl))(R)-bis(2-methylpropanoate)], 65 nM.
